Key:
parodontosis = settings: topical administration; cited from earlier work
corneal graft rejections = settings: topical administration; cited from earlier work
[1] = test system: oral findings due to GVHD
Description: Five other patients suffering from oral findings due to GVHD were treated with oral azathioprine solutions, using the method of the present invention. The patients were treated with 5 ml of a solution of AZA (5 mg/ml), three-four times daily. […] One patient (#5) was treated once with an oral rinse, and subsequently with a combination of an AZA rinse and AZA in a gel (5 mg/ml in a 3% methylcellulose base). The patients were not treated with any systemic immunosuppressant or steroid drug. The progress of each patient was reviewed at the times indicated.

[2] = 50 mg/ml solution, 60 days at 25° C.; cited from earlier work
aphthous stomatitis = settings: topical administration; cited from earlier work
[3] = delayed-release oral capsule, improved ileocolonic delivery; cited from earlier work
chronic oral GVHD = test: Case report: severe chronic oral GVHD refractory to systemic and topical therapies; settings: when systemic prednisone was increased; tongue ulceration not resolved
Description: They had continuing difficulties with GVHD, including oral involvement.
Oral findings were consistent with pseudomembranous candidiasis, and an ulceration on the left cheek was consistent with minor trauma. […] Acute (grade II) GVHD (skin and liver) was treated with systemic corticosteroids.
Leukoplakia involving the lateral borders of the tongue, consistent with hairy-like leukoplakia, developed. […] Oral changes included findings consistent with GVHD and reactivation of HSV. HSV and candida were confirmed on culture. […] Multiple dilated salivary ducts were visualized on the soft palate. Ulcerations of 3-4 mm in diameter were present on the lateral borders, the dorsum, and the tip of the tongue. […] Biopsy of the ulcer on the cheek was consistent with HSV.
Extensive lichenoid striae with moderate erythema and ulceration involving the lateral tongue on the right and left and the right cheek was seen. A second oral biopsy of lip mucosa and minor salivary glands was completed, which was interpreted as grade II GVHD.
The AZA suspension was made by combining AZA powder with a cherry flavored methylcellulose (1%) suspending vehicle to a final concentration of 5 mg/ml. […]

SMILES	effect in the treatment of parodontosis (parodontosis)	effect in the treatment of corneal graft rejections (corneal graft rejections)	reduction in ulceration ([1]; all but one of the GVHD patients of Table 1)	reduction in pain, all the patients ([1]; all five GVHD patients of Table 1)	estimated global improvement, all the patients ([1]; all five GVHD patients of Table 1, compared to condition prior to treatment) [%]	retained share of the initial concentration [2]	effect in the treatment of aphthous stomatitis (aphthous stomatitis)	systemic bioavailability [3]	oral symptoms and signs (chronic oral GVHD)
Cn1cnc([N+](=O)[O-])c1Sc1ncnc2nc[nH]c12 [AZA, azathioprine]	some beneficial effect	ineffective	at least 50%	at least 50%	≥ 40	at least 96%	ineffective	dramatically reduced systemic bioavailability	
C[C@]12C=CC(=O)C=C1CC[C@@H]1[C@@H]2C(=O)C[C@@]2(C)[C@H]1CC[C@]2(O)C(=O)CO [prednisone]									improved
